Consider 12 compounds from article PMC3010267 (Analytical biochemistry, 2010).

In assay [1] the target is β1 adrenergic receptor (β1AR*, with mutations R68S, Y227A, A282L, F237A, and F338M) (Meleagris gallopavo, UniProt P07700, A282L/F327A/F338M/R68S/Y227A). Kind of assay: biochemical. The class given is binding, turkey.
In assay [2] the target is A2A adenosine receptor (A2AR*, with mutations A54L, T88A, K122A, and V239A) (Homo sapiens, UniProt P29274, A54L/K122A/T88A/V239A). Description: Biacore kinetic analysis of antagonists binding to capture-coupled A2AR*. On the technique in general: SPR reads the build-up and loss of mass on a sensor chip optically.
Assay [3] concerns the target β1 adrenergic receptor (β1AR*) (Meleagris gallopavo, UniProt P07700, A282L/F327A/F338M/R68S/Y227A). Description: biochemical. The class given is binding, turkey.

Usually Kd stands for the concentration at which binding is half-saturated. Low readings indicate a tighter complex, high ones a looser complex.

Turning to `CC(C)(C)NC[C@H](O)COc1nsnc1N1CCOCC1` [timolol], the kd in assay [1] is recorded as 6.94(8) × 10^−3 s^−1.

For `Nc1nc2c(cnn2CCc2ccccc2)c2nc(-c3ccco3)nn12` [SCH 58261], the kd in assay [2] is reported as 6.6(2) × 10^−2 s^−1. The ka in assay [2] (biacore capture-coupled a2ar*) is on record as 1.00(3) × 10^6 M^−1s^−1.

The compound `CC(C)NCC(O)COc1ccc(CC(N)=O)cc1` (centres unmarked) [atenolol] yielded a Kd in assay [3] of 49.2 µM.

For the compound `OC(CNCC(O)C1CCc2cc(F)ccc2O1)C1CCc2cc(F)ccc2O1` (centres unmarked) [nebivolol], in assay [1], the kd was 1.50(3) × 10^−2 s^−1.

On to `CC(CCc1ccccc1)NCC(O)c1ccc(O)c(C(N)=O)c1` (centres unmarked) [labetalol], for which binding in assay [1] was put at a Kd of 0.095 µM.

`COc1ccc(OC)c(C(O)C(C)NC(C)(C)C)c1` (centres unmarked) [butoxamine] registered a Kd in assay [3] of 5.15 µM.

As for `CC(C)(C)NCC(O)c1cc(Cl)c(N)c(Cl)c1` (centres unmarked) [clenbuterol], in assay [1], the affinity, expressed as Kd, was 0.54 µM; the ka is 2.47(9) × 10^5 M^−1s^−1; the kd was 1.33(5) × 10^−1 s^−1.

Compound `CC[C@@H](CO)NC(=O)[C@@H]1C=C2c3cccc4[nH]cc(c34)C[C@H]2N(C)C1` [methylergonovine] showed a Kd in assay [3] of 49.6 µM.

In assay [3], `NCCc1c[nH]c2ccc(O)cc12` [serotonin] returned a Kd of 14.2 µM.

Take `C=CCc1ccccc1OCC(O)CNC(C)C` (centres unmarked) [alprenolol]: in assay [1], binding was characterised by a dissociation constant (Kd) of 0.019 µM, the ka is recorded as 1.31(4) × 10^6 M^−1s^−1 and the kd is reported as 2.49(7) × 10^−2 s^−1.

Turning to `C[C@@H](CO)NC(=O)[C@@H]1C=C2c3cccc4[nH]cc(c34)C[C@H]2N(C)C1` [ergonovine], the Kd in assay [3] turned out to be 84.1 µM.

On to `CCCn1c(=O)[nH]c2nc(-c3ccc(S(=O)(=O)O)cc3)[nH]c2c1=O` [PSB 1115], for which the Kd in assay [2] (A2AR, approximate value given in text for the displacement-regeneration compound) was ~1 µM.
